Assay results reported in patent publication US8426408B2, “Pyrimidine inhibitors of kinases” (AbbVie Inc., priority 2009, dated 2013).

Experiments:
Aurora B = biological target: T1, Aurora B (Homo sapiens, UniProt Q96GD4); test: Aurora B enzyme inhibition (time-resolved fluorescence, histone H3 peptide); format: biochemical; conditions: 1 mM ATP
T1 construct: Active Aurora B enzyme (recombinant residues 1-344)
Outline: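 IC50s came from an exponential fit of inhibition against inhibitor concentration, with phosphorylation read as the 665/615 nm time-resolved fluorescence ratio after EDTA stop using Eu-anti-phospho-H3 and SA-APC. The 1 h reaction used Aurora B 1-344 plus GST-INCENP, biotin-histone H3 1-21 peptide and 1 mM ATP in pH 7.4 HEPES buffer.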

Aurora A = biological target: T2, Aurora A (Homo sapiens, UniProt O14965); test: Aurora A enzyme inhibition (time-resolved fluorescence, STK substrate-2); format: biochemical; conditions: 1 mM ATP
T2 sequence (O14965 1-403): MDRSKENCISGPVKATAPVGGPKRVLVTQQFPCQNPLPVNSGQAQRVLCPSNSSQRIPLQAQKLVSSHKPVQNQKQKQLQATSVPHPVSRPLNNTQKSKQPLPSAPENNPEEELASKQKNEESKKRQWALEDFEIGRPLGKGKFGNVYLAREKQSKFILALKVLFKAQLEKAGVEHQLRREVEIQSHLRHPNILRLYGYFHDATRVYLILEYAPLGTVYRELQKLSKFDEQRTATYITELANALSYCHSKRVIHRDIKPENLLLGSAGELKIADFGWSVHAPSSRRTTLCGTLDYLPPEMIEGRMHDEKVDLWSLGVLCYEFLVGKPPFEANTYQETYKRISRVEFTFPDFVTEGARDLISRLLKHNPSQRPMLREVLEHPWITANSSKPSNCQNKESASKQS
Outline: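 Phosphorylation of biotinylated STK substrate-2 at 1 mM ATP, 1 h, Hepes buffer pH 7.4 (MgCl2, sodium orthovanadate, Triton X-100). After EDTA quench, 665/615 nm time-resolved fluorescence ratio read via europium anti-phospho antibody and SA-XL665; IC50 from exponential fit versus inhibitor concentration.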

KDR [1] = biological target: T3, KDR (Homo sapiens, UniProt P35968); test: KDR HTRF in vitro kinase assay; format: biochemical; design: purified enzyme (His6-KDR 789-1354, MW 63 kD); His6 (N); conditions: 1 mM ATP; read-out: KDR enzyme inhibition data (Ki)
Outline: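 His6-KDR 789-1354 (7 ng/well) with 0.5 μM biotinylated peptide substrate and 1 mM ATP in HEPES pH 7.1, MgCl2/MnCl2, 60 min at room temperature. EDTA-quenched, detected by streptavidin-XL-665 plus Eu-kryptate anti-phosphotyrosine HTRF after 3 h; IC50 from 620/665 nm ratio.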
Target sequence in this assay (P35968 789-1354): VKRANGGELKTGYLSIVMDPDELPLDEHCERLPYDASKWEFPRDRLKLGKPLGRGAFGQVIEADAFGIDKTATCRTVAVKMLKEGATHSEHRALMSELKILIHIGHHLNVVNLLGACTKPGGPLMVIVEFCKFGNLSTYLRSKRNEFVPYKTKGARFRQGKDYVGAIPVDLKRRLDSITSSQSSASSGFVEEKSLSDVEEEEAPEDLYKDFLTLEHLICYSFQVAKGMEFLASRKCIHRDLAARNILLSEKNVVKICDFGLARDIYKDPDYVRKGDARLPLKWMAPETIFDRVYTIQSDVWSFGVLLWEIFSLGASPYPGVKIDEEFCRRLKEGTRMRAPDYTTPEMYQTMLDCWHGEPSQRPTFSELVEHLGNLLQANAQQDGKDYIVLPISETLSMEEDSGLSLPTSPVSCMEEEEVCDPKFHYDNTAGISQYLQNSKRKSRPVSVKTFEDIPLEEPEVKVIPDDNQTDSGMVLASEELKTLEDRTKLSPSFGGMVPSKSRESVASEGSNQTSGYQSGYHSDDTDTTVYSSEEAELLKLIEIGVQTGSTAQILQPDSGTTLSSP

KDR [2] = biological target: T3, KDR; test: KDR cellular assay (KDR receptor phosphorylation ELISA); format: cell-based; design: expressed in transfected cells; host or cells: 3T3 (embryonic mouse) cells; conditions: KDR transfected 3T3 (embryonic mouse) cells, VEGF stimulated; read-out: IC50 inhibition of KDR phosphorylation
Method: The ability of compounds to inhibit KDR receptor phosphorylation in cells was measured by ELISA following the protocol outlined below.
KDR transfected 3T3 (embryonic mouse) cells added to 96-well tissue culture plates at 20,000 cells/well.
Plates were covered and placed in a 37° C. humidified incubator with 5% CO2 overnight, to allow cells to adhere.
Coating solution was prepared: 500 l/vial PBS was added to 2 vials of anti-KDR antibody, then 1 ml solubilized anti-KDR antibody into 29.0 ml bicarbonate buffer. Coating solution was added to all wells at 150 µl/well (final amount anti-KDR=1 µg/well) and placed at 4° C. overnight.
Blocking solution (2.1 g dry milk+42 ml PBS=5% milk in PBS) was placed on a stir plate for 30 min.
Assay plates were washed twice with PBST, and 200 µl/well blocking solution was added to all wells. Assay plates were covered with plate sealers and placed in a 37° C. microplate chamber until just before cell lysate transfer.
Compound stocks were thawed or prepared in DMSO as 5 mM stocks.
Dilution medium (DM, 1% DMSO in DMEM) and compounds were diluted by half-log increments for concentration response analysis.
Conditioned media was dumped from the tissue culture plates, and plates were blotted dry.
Standard solution in DM, compound dilutions in DM, or DM (for high control, negative control, and reference wells) were added to the tissue culture plates, 25 µl/well. Each pair of tissue culture plates was prepared with the same compounds, solutions, and layout; and will be combined later; Tissue culture plates were covered and placed in the 37° C. microplate chamber for 20 min.
VEGF solution was prepared: 110 l VEGF stock+10.89 ml DM=100 ng/ml VEGF
VEGF solution or DM (for reference wells) was added to the tissue culture plates, 25 μl/well.
Tissue culture plates were covered and placed in the 37° C. microplate chamber for 10 min.
RIPA buffer was prepared (240 l NaVO3 stock+240 l PIC stock+24 l NaF stock+23.496 ml RIPA base) and added to the tissue culture plates, 50 µl/well.
Tissue culture plates were covered and placed on a Labline plate shaker for 10 min (speed about 5).
Assay plates were washed twice with PBST.
Cell lysates from matching wells of each pair of tissue culture plates were combined to =200 µl/well, and were pipetted up and down to mix. Cell lysates were transferred to the assay plates using the same layouts, 170 µl/well.
Assay plates were covered with plate sealers and placed on a Labline plate shaker for 2 hr (speed about 5).
Assay plates were washed 5 times with PBST.
Biotin antibody solution was prepared (16 l biotin antibody stock+32 ml PBST=2000× dilution) and added to the assay plates, 150 µl/well.
Assay plates were covered with plate sealers and placed on a Labline plate shaker for 90 min
Streptavidin-HRP solution was prepared (16 l streptavidin-HRP stock+32 ml PBST=2000× dilution) and added to the assay plates, 150 µl/well.
Assay plates were covered with plate sealers and placed on a Labline plate shaker for 60 min
Substrate was added to the assay plates, 100 µl/well.
As assay plates developed, the plates were each monitored on a Molecular Devices Spectramax set to 650 nm, until the signal in the high control wells was around 0.6 OD and the signal in the negative control wells was around 0.1-0.15 OD.
Stop solution was added to the assay plates, 100 µl/well.
The plates were read on a Molecular Devices Spectramax set to 450 nm.
Data was calculated by Assay Explorer, using same-plate high control wells as 0% and reference standard wells as 100% inhibition of KDR phosphorylation. IC50 values were calculated by non-linear regression analysis of the concentration response data.
Target sequence in this assay (P35968 20-1356): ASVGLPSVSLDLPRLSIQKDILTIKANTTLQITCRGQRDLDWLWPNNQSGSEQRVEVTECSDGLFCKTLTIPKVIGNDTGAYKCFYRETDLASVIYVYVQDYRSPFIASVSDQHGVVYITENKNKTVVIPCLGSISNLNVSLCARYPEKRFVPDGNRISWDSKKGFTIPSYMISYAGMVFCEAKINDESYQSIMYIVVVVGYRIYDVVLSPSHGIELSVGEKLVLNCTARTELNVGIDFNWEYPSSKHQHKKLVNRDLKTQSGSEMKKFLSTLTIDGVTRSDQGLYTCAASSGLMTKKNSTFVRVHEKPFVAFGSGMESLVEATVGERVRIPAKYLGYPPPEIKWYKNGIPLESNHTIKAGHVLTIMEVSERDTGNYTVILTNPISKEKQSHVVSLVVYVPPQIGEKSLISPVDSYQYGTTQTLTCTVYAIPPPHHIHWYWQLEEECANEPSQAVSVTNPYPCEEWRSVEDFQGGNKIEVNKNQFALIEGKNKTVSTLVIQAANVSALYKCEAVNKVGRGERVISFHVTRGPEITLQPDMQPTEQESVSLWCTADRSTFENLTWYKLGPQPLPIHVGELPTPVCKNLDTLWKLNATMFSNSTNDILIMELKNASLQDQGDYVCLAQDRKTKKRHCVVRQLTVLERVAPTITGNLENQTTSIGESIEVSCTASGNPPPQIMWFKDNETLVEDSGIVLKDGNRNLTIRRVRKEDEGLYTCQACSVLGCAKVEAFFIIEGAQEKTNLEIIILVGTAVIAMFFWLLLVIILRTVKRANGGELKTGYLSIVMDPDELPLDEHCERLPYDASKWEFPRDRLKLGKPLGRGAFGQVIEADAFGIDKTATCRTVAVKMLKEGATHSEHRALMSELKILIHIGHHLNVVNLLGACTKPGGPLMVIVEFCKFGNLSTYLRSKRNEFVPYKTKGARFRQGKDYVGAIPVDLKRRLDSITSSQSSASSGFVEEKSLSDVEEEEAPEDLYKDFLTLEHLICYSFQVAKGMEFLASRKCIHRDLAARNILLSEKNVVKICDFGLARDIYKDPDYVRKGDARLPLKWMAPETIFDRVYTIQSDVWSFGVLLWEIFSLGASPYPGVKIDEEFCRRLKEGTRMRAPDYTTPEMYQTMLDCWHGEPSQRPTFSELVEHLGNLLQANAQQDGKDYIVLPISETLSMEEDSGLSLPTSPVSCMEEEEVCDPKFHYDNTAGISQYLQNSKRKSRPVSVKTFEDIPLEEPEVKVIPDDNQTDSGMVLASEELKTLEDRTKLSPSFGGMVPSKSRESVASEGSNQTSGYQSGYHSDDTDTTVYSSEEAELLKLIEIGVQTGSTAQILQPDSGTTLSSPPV

T1 sequence (Q96GD4 whole entry, the tested form may be a part): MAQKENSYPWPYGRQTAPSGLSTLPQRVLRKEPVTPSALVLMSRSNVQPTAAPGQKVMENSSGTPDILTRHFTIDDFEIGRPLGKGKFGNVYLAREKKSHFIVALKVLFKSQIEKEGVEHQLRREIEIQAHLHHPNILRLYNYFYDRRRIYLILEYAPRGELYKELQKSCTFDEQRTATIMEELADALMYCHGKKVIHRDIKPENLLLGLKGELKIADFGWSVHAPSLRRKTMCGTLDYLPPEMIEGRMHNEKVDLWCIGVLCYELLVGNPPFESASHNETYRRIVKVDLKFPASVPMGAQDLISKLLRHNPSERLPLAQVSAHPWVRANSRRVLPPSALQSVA
T1 sequence (Q9NQS7 826-918 partner limits assumed): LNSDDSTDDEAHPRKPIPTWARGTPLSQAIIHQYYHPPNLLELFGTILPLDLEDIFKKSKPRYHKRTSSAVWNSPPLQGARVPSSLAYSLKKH

With Cc1nn(C)c(C)c1Nc1ncc(Br)c(N[C@H]2[C@@H](C(N)=O)[C@@H]3C=C[C@H]2C3)n1 [Example 128, (1S,2S,3R,4R)-3-({5-bromo-2-[(1,3,5-trimethyl-1H-pyrazol-4-yl)amino]pyrimidin-4-yl}amino)bicyclo[2.2.1]hept-5-ene-2-carboxamide] the Ki (Aurora B) was 100 to 1000 nM, the Ki (Aurora A) was 100 to 1000 nM and the Ki (KDR [1]) was 100 to 1000 nM. The IC50 (KDR [2]) was 100 to 1000 nM.

For Cn1cc(Nc2ncc(C(F)(F)F)c(Nc3sccc3C(N)=O)n2)cn1 [Example 152, 2-({2-[(1-methyl-1H-pyrazol-4-yl)amino]-5-(trifluoromethyl)pyrimidin-4-yl}amino)thiophene-3-carboxamide], the Ki (Aurora B) was under 100 nM, the Ki (Aurora A) was under 100 nM and the Ki (KDR [1]) was 100 to 1000 nM. It also gave an IC50 (KDR [2]) of 100 to 1000 nM.

Cc1nc(Nc2cnn(C)c2)nc(N[C@@H]2[C@H](C(N)=O)[C@H]3C=C[C@@H]2C3)c1Cl.Cc1nc(Nc2cnn(C)c2)nc(N[C@H]2[C@@H](C(N)=O)[C@@H]3C=C[C@H]2C3)c1Cl (mixture of isomers) [Example 125, (1S,2S,3R,4R)-3-({5-chloro-6-methyl-2-[(1-methyl-1H-pyrazol-4-yl)amino]pyrimidin-4-yl}amino)bicyclo[2.2.1]hept-5-ene-2-carboxamide and (1R,2R,3S,4S)-3-({5-chloro-6-methyl-2-[(1-methyl-1H-pyrazol-4-yl)amino]pyrimidin-4-yl}amino)bicyclo[2.2.1]hept-5-ene-2-carboxamide] was tested, and the Ki (Aurora B) was under 100 nM, the Ki (Aurora A) was 100 to 1000 nM and the Ki (KDR [1]) was 100 to 1000 nM. For the same compound, the IC50 (KDR [2]) was 100 to 1000 nM.

Cn1cc(Nc2ncc(Br)c(N[C@H]3[C@@H](C(N)=O)C[C@H]4C[C@@H]3C4(C)C)n2)cn1 [Example 182, (1R,2R,3S,5R)-2-({5-bromo-2-[(1-methyl-1H-pyrazol-4-yl)amino]pyrimidin-4-yl}amino)-6,6-dimethylbicyclo[3.1.1]heptane-3-carboxamide] gave a Ki (Aurora B) of under 100 nM, a Ki (Aurora A) of under 100 nM and a Ki (KDR [1]) of under 100 nM. It also gave an IC50 (KDR [2]) of 100 to 1000 nM.

With Cc1c(Nc2ncc(Br)c(N[C@H]3[C@@H](C(N)=O)C[C@H]4C[C@@H]3C4(C)C)n2)cnn1C [Example 185, (1R,2R,3S,5R)-2-({5-bromo-2-[(1,5-dimethyl-1H-pyrazol-4-yl)amino]pyrimidin-4-yl}amino)-6,6-dimethylbicyclo[3.1.1]heptane-3-carboxamide] the Ki (Aurora B) was under 100 nM, the Ki (Aurora A) was under 100 nM and the Ki (KDR [1]) was under 100 nM. The IC50 (KDR [2]) was 100 to 1000 nM.

Compound CCn1cc(Nc2nc(C)c(Cl)c(N[C@@H]3[C@H](C(N)=O)[C@H]4C=C[C@@H]3C4)n2)cn1.CCn1cc(Nc2nc(C)c(Cl)c(N[C@H]3[C@@H](C(N)=O)[C@@H]4C=C[C@H]3C4)n2)cn1 (mixture of isomers) [Example 126, (1S,2S,3R,4R)-3-({5-chloro-2-[(1-ethyl-1H-pyrazol-4-yl)amino]-6-methylpyrimidin-4-yl}amino)bicyclo[2.2.1]hept-5-ene-2-carboxamide and (1R,2R,3S,4S)-3-({5-chloro-2-[(1-ethyl-1H-pyrazol-4-yl)amino]-6-methylpyrimidin-4-yl}amino)bicyclo[2.2.1]hept-5-ene-2-carboxamide] has a Ki (Aurora B) of under 100 nM, a Ki (Aurora A) of under 100 nM and a Ki (KDR [1]) of 100 to 1000 nM. The IC50 (KDR [2]) was 100 to 1000 nM.

In the case of Cn1cc(Nc2ncc(Cl)c(Nc3ccccc3C(C)(C)O)n2)cn1 [Example 138, 2-[2-({5-chloro-2-[(1-methyl-1H-pyrazol-4-yl)amino]pyrimidin-4-yl}amino)phenyl]propan-2-ol], the Ki (Aurora B) is reported as under 100 nM, the Ki (Aurora A) is reported as under 100 nM and the Ki (KDR [1]) is reported as under 100 nM. For the same compound, the IC50 (KDR [2]) was 100 to 1000 nM.

With Cn1cc(Nc2ncc(Br)c(N[C@@H]3[C@H](C(N)=O)[C@H]4C=C[C@@H]3C4)n2)cn1.Cn1cc(Nc2ncc(Br)c(N[C@H]3[C@@H](C(N)=O)[C@@H]4C=C[C@H]3C4)n2)cn1 (mixture of isomers) [Example 28, (1S,2S,3R,4R)-3-({5-bromo-2-[(1-methyl-1H-pyrazol-4-yl)amino]pyrimidin-4-yl}amino)bicyclo[2.2.1]hept-5-ene-2-carboxamide and (1R,2R,3S,4S)-3-({5-bromo-2-[(1-methyl-1H-pyrazol-4-yl)amino]pyrimidin-4-yl}amino)bicyclo[2.2.1]hept-5-ene-2-carboxamide] the Ki (Aurora B) was under 100 nM, the Ki (Aurora A) was under 100 nM and the Ki (KDR [1]) was under 100 nM. The IC50 (KDR [2]) was under 100 nM.
